# “Also recorded” adds a separate entry of the source.
# Experiments:
# [1] = system: peptide-pulsed T2 cells; experiment: In vitro CTL induction, IFN-gamma ELISPOT assay (HLA-A*0201); type: cell-based, human; details: CTLs induced with peptide from HLA-A*0201 positive donor, peptide-pulsed T2 vs control
# Description: Monocyte-derived dendritic cells (DCs) were used as antigen-presenting cells to induce cytotoxic T lymphocyte (CTL) responses against peptides presented on human leukocyte antigen (HLA). DCs were generated in vitro as described elsewhere (Nakahara S et al., Cancer Res 2003, 63(14): 4112-8). Specifically, peripheral blood mononuclear cells isolated from a normal volunteer (HLA-A*0201 positive) by Ficoll-Plaque (Pharmacia) solution were separated by adherence to a plastic tissue culture dish (Becton Dickinson) so as to enrich them as the monocyte fraction. The monocyte-enriched population was cultured in the presence of 1000 U/ml of granulocyte-macrophage colony-stimulating factor (R&D System) and 1000 U/ml of interleukin (IL)-4 (R&D System) in AIM-V Medium (Invitrogen) containing 2% heat-inactivated autologous serum (AS). After 7 days of culture, the cytokine-induced DCs were pulsed with 20 micro-g/ml of each of the synthesized peptides in the presence of 3 micro-g/ml of beta 2-microglobulin for 3 hr at 37 degrees C. in AIM-V Medium. The generated cells appeared to express DC-associated molecules, such as CD80, CD83, CD86 and HLA class II, on their cell surfaces (data not shown). These peptide-pulsed DCs were then inactivated by X-irradiation (20 Gy) and mixing at a 1:20 ratio with autologous CD8+ T cells, obtained by positive selection with CD8 Positive Isolation Kit (Dynal). These cultures were set up in 48-well plates (Corning); each well contained 1.5×10^4 peptide-pulsed DCs, 3×10^5 CD8+ T cells and 10 ng/ml of IL-7 (R&D System) in 0.5 ml of AIM-V/2% AS medium. Three days later, these cultures were supplemented with IL-2 (CHIRON) to a final concentration of 20 IU/ml. On day 7 and 14, the T cells were further stimulated with the autologous peptide-pulsed DCs. The DCs were prepared each time by the same way described above. CTL was tested against peptide-pulsed T2 cells after the 3rd round of peptide stimulation on day 21 (Tanaka H et al., Br J Cancer 2001, 84(1): 94-9; Umano Y et al., Br J Cancer 2001, 84(8): 1052-7; Uchida N et al., Clin Cancer Res 2004, 10(24): 8577-86; Suda T et al., Cancer Sci 2006, 97(5): 411-9; Watanabe T et al., Cancer Sci 2005, 96(8): 498-506).
# (§1) Specifically, peptide-pulsed T2 (1×10^4/well) was prepared as stimulator cells. Cultured cells in 48 wells were used as responder cells. IFN-gamma ELISPOT assay and IFN-gamma ELISA assay were performed under manufacture procedure.
# CTLs for those peptides derived from TTLL4 were generated according to the protocols as described in “Materials and Methods”.
# [2] = system: peptide-pulsed T2 cells; experiment: IFN-gamma ELISA assay of CTL lines (HLA-A*0201); type: cell-based, human; details: CTL lines stimulated with peptide, target cells pulsed with peptide vs without peptide pulse
# Method: CTLs were expanded in culture using the method similar to the one described by Riddell et al. (Walter E A et al., N Engl J Med 1995, 333(16): 1038-44; Riddell S R et al., Nat Med 1996, 2(2): 216-23). A total of 5×10^4 CTLs were suspended in 25 ml of AIM-V/5% AS medium with 2 kinds of human B-lymphoblastoid cell lines, inactivated by Mitomycin C, in the presence of 40 ng/ml of anti-CD3 monoclonal antibody (Pharmingen). One day after initiating the cultures, 120 IU/ml of IL-2 were added to the cultures. The cultures were fed with fresh AIM-V/5% AS medium containing 30 IU/ml of IL-2 on days 5, 8 and 11 (Tanaka H et al., Br J Cancer 2001, 84(1): 94-9; Umano Y et al., Br J Cancer 2001, 84(8): 1052-7; Uchida N et al., Clin Cancer Res 2004, 10(24): 8577-86; Suda T et al., Cancer Sci 2006, 97(5): 411-9; Watanabe T et al., Cancer Sci 2005, 96(8): 498-506).
# as §1
# (§2) CTL activity of these CTL lines was determined by IFN-gamma ELISA assay (FIG. 6a-d). […] Furthermore, the CTL clones were established by limiting dilution from the CTL lines as described in “Materials and Methods”, and IFN-gamma production from the CTL clones against target cells pulsed peptide was determined by IFN-gamma ELISA assay.
# [3] = system: peptide-pulsed T2 cells; experiment: IFN-gamma ELISA assay of CTL clones (HLA-A*0201); type: cell-based, human; details: CTL clones by limiting dilution, target cells pulsed with peptide vs control
# Method: The dilutions were made to have 0.3, 1, and 3 CTLs/well in 96 round-bottomed micro titer plate (Nalge Nunc International). CTLs were cultured with 1×10^4 cells/well of 2 kinds of human B-lymphoblastoid cell lines, 30 ng/ml of anti-CD3 antibody, and 125 U/ml of IL-2 in a total of 150 micro-l/well of AIM-V Medium containing 5% AS. 50 micro-l/well of IL-2 were added to the medium 10 days later so to reach a final concentration of 125 U/ml IL-2. CTL activity was tested on the 14th day, and CTL clones were expanded using the same method as described above (Uchida N et al., Clin Cancer Res 2004, 10(24): 8577-86; Suda T et al., Cancer Sci 2006, 97(5): 411-9; Watanabe T et al., Cancer Sci 2005, 96(8): 498-506).
# as §1, §2
# [4] = system: COS7 cells transfected with TTLL4 and HLA-A*0201; experiment: Specific CTL activity against target cells expressing TTLL4 and HLA-A*0201; type: cell-based, African green monkey; details: for Specific CTL activity against COS7 cells transfected with both TTLL4 and HLA-A*0201: CTL clone (9-805) or CTL line (9-66) established with peptide; for Specific CTL activity against control COS7 cells expressing either HLA-A*0201 or TTLL4: controls: COS7 transfected with only full length TTLL4 or only HLA-A*0201
# Description: The cDNA encoding an open reading frame of target genes or HLA-A*0201 was amplified by PCR. The PCR-amplified product was cloned into a vector. The plasmids were transfected into COST, which is the target genes and HLA-A*0201-null cell line, using lipofectamine 2000 (Invitrogen) according to the manufacturer's recommended procedures. After 2 days from transfection, the transfected cells were harvested with versene (Invitrogen) and used as the target cells (5×10^4 cells/well) for CTL activity assay.
# The established CTL lines and clones raised against each peptide were examined for the ability to recognize target cells that express TTLL4 and HLA-A*0201 molecule. […] COS7 cells transfected with either full length of TTLL4 or HLA-A*0201 were prepared as the controls.
sequence,measurement,setting,value
ALIYSLFPNV [SEQ ID NO: 59],"Peptide specific CTL activity (IFN-gamma production, ELISPOT)",[1]; listed as TTLL4-A02-10-574,potent IFN-gamma production; also recorded: significant and specific CTL activity
same,IFN-gamma production of CTL lines (ELISA),[2],potent IFN-gamma production
same,IFN-gamma production of CTL clones (ELISA),[3]; listed as TTLL4-A02-10-574,Potent IFN-gamma productions
FMHLTNYSV [SEQ ID NO: 39],"Peptide specific CTL activity (IFN-gamma production, ELISPOT)",[1]; listed as TTLL4-A02-9-805,potent IFN-gamma production; also recorded: significant and specific CTL activity
same,Specific CTL activity against COS7 cells transfected with both TTLL4 and HLA-A*0201,[4]; listed as TTLL4-A02-9-805,specific CTL activity; also recorded: potent CTL activity
same,Specific CTL activity against control COS7 cells expressing either HLA-A*0201 or TTLL4,[4],no significant specific CTL activity was detected
same,IFN-gamma production of CTL lines (ELISA),[2],potent IFN-gamma production
same,IFN-gamma production of CTL clones (ELISA),[3]; listed as TTLL4-A02-9-805,Potent IFN-gamma productions
FMWPNSTPV [SEQ ID NO: 38],"Peptide specific CTL activity (IFN-gamma production, ELISPOT)",[1]; listed as TTLL4-A02-9-222,potent IFN-gamma production; also recorded: significant and specific CTL activity
same,IFN-gamma production of CTL lines (ELISA),[2],potent IFN-gamma production
same,IFN-gamma production of CTL clones (ELISA),[3]; listed as TTLL4-A02-9-222,Potent IFN-gamma productions
GLGPGLLGV [SEQ ID NO: 44],"Peptide specific CTL activity (IFN-gamma production, ELISPOT)",[1]; listed as TTLL4-A02-9-66,potent IFN-gamma production; also recorded: significant and specific CTL activity
same,Specific CTL activity against COS7 cells transfected with both TTLL4 and HLA-A*0201,[4]; listed as TTLL4-A02-9-66,specific CTL activity; also recorded: potent CTL activity
same,Specific CTL activity against control COS7 cells expressing either HLA-A*0201 or TTLL4,[4],no significant specific CTL activity was detected
same,IFN-gamma production of CTL lines (ELISA),[2],potent IFN-gamma production

# Reference: patent US20130224234A1, “TTLL4 PEPTIDES AND VACCINES CONTAINING THE SAME” (Onco Therapy Science, Inc., priority 2010, published 2013)
